From the supplement of paper PMC10307832

Key:
Assay in all cases: relative viability (nuclei count vs DMSO), 5 days (fraction); higher = more cells survive
MK-8033 + Tozasertib = compound: Cn1cc(-c2cnc3ccc4ccc(CS(=O)(=O)NCc5ccccn5)cc4c(=O)c3c2)cn1 [MK-8033] + Cc1cc(Nc2cc(N3CCN(C)CC3)nc(Sc3ccc(NC(=O)C4CC4)cc3)n2)n[nH]1 [Tozasertib] (partner 0.1 µM)
How it was run: (§1)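 After 5 days of treatment, lung cancer cells in 1536-well plates were fixed and stained in a single step (final 0.05% Triton X-100, 1% formaldehyde, 1 ug/ml Hoechst) and their nuclei counted on 4× images. Treatment had been applied by pin tool the day after seeding as one drug alone or as a fixed anchor-drug dose with five library-drug doses (not always all listed) in √10 steps. Relative viability is the nuclei count of treated wells divided by that of vehicle wells, and values are medians of duplicate plates.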

Irinotecan + Pemetrexed = compound: CCc1c2c(nc3ccc(OC(=O)N4CCC(N5CCCCC5)CC4)cc13)-c1cc3c(c(=O)n1C2)COC(=O)[C@]3(O)CC [Irinotecan] + Nc1nc2[nH]cc(CCc3ccc(C(=O)N[C@@H](CCC(=O)O)C(=O)O)cc3)c2c(=O)[nH]1 [Pemetrexed] (partner 0.2 µM)
How it was run: as §1

MK-8033 + Lapatinib = compound: Cn1cc(-c2cnc3ccc4ccc(CS(=O)(=O)NCc5ccccn5)cc4c(=O)c3c2)cn1 [MK-8033] + CS(=O)(=O)CCNCc1ccc(-c2ccc3ncnc(Nc4ccc(OCc5cccc(F)c5)c(Cl)c4)c3c2)o1 [Lapatinib] (partner 2 µM)
How it was run: as §1

MK-8033 + Bortezomib = compound: Cn1cc(-c2cnc3ccc4ccc(CS(=O)(=O)NCc5ccccn5)cc4c(=O)c3c2)cn1 [MK-8033] + CC(C)C[C@H](NC(=O)[C@H](Cc1ccccc1)NC(=O)c1cnccn1)B(O)O [Bortezomib] (partner 0.002 µM)
How it was run: as §1

| Cell Line | relative viability (MK-8033 + Tozasertib; first compound 0.02 µM) | relative viability (MK-8033 + Tozasertib; first compound 0.06325 µM) | relative viability (MK-8033 + Tozasertib; first compound 0.2 µM) | relative viability (MK-8033 + Tozasertib; first compound 0.6325 µM) | relative viability (MK-8033 + Tozasertib; first compound 2 µM) | relative viability (Irinotecan + Pemetrexed; first compound 0.6325 µM) | relative viability (Irinotecan + Pemetrexed; first compound 2 µM) | relative viability (Irinotecan + Pemetrexed; first compound 6.325 µM) | relative viability (Irinotecan + Pemetrexed; first compound 20 µM) | relative viability (MK-8033 + Lapatinib; first compound 0.02 µM) | relative viability (MK-8033 + Lapatinib; first compound 0.06325 µM) | relative viability (MK-8033 + Lapatinib; first compound 0.2 µM) | relative viability (MK-8033 + Lapatinib; first compound 0.6325 µM) | relative viability (MK-8033 + Lapatinib; first compound 2 µM) | relative viability (MK-8033 + Bortezomib; first compound 0.02 µM) | relative viability (MK-8033 + Bortezomib; first compound 0.06325 µM) | relative viability (MK-8033 + Bortezomib; first compound 0.2 µM) | relative viability (MK-8033 + Bortezomib; first compound 0.6325 µM) | relative viability (MK-8033 + Bortezomib; first compound 2 µM) |
| --- | --- | --- | --- | --- | --- | --- | --- | --- | --- | --- | --- | --- | --- | --- | --- | --- | --- | --- | --- |
| NCI-H460 | 0.392 | 0.443 | 0.387 | 0.377 | 0.108 | 0.0679 | 0.093 | 0.0699 | 0.0601 | 0.968 | 0.897 | 0.907 | 1.13 | 0.793 | 0.908 | 1.08 | 1.06 | 1.28 | 1.17 |
| NCI-H596 | 0.802 | 0.898 | 0.859 | 0.944 | 0.853 | 0.471 | 0.608 | 0.595 | 0.748 | 1.12 | 0.977 | 1.05 | 1.02 | 1.17 | 1.18 | 0.933 | 0.882 | 0.941 | 1.09 |
| NCI-H2347 | 0.545 | 0.574 | 0.584 | 0.552 | 0.436 | 0.429 | 0.427 | 0.342 | 0.427 | 0.872 | 0.858 | 0.903 | 0.781 | 0.914 | 1.1 | 0.999 | 0.846 | 1.03 | 1.08 |
| 201T | 0.864 | 0.899 | 0.82 | 0.909 | 0.86 | 0.274 | 0.308 | 0.271 | 0.283 | 1.03 | 0.906 | 0.995 | 1.07 | 1.07 | 1.13 | 1.09 | 1.08 | 1.07 | 1.12 |
| NCI-H1650 | 0.395 | 0.325 | 0.395 | 0.352 | 0.276 | 0.365 | 0.373 | 0.282 | 0.111 | 0.823 | 0.69 | 0.737 | 0.709 | 0.707 | 0.198 | 0.181 | 0.197 | 0.234 | 0.218 |
| NCI-H1734 | 0.243 | 0.215 | 0.3 | 0.261 | 0.242 | – | 0.385 | 0.222 | 0.141 | 1.11 | 0.88 | 1.02 | 1.09 | 1.01 | 1.14 | 0.814 | 0.871 | 0.898 | 0.916 |
| SW 1573 | 0.175 | 0.214 | 0.187 | 0.223 | 0.232 | – | 0.553 | 0.176 | 0.0829 | 1.06 | 1.09 | 0.976 | 1.14 | 0.994 | 1.08 | – | 0.902 | 0.988 | 1.05 |
| NCI-H1993 | 0.564 | 0.525 | 0.561 | 0.525 | 0.583 | – | 0.637 | 0.545 | 0.506 | 0.765 | 0.677 | 0.7 | 0.802 | 0.828 | 0.498 | 0.804 | 0.794 | 0.816 | 0.853 |
| NCI-H1755 | 0.552 | 0.473 | 0.536 | 0.537 | 0.536 | 0.383 | 0.45 | 0.39 | 0.448 | 1.06 | 0.986 | 1.02 | 1.02 | 0.957 | 0.987 | 0.834 | 0.933 | 0.849 | 0.835 |
| PC-14 | 0.607 | 0.539 | 0.482 | 0.594 | 0.519 | 0.155 | 0.175 | 0.136 | 0.111 | 0.338 | 0.25 | 0.305 | 0.31 | 0.294 | 0.898 | 0.742 | 0.816 | 0.809 | 0.772 |
| HCC-827 | 0.412 | – | 0.402 | 0.4 | 0.401 | 0.264 | 0.236 | 0.248 | 0.206 | 0.195 | – | 0.188 | 0.184 | 0.218 | 1.06 | 1.01 | 1.05 | 1.08 | 1.04 |
| LCLC-97TM1 | 0.2 | 0.237 | 0.241 | 0.223 | 0.216 | 0.124 | 0.196 | 0.129 | 0.133 | 1.35 | 1.06 | 0.656 | 0.957 | 0.929 | 1.14 | 0.616 | 0.597 | 0.654 | 0.499 |
| EMC-BAC-2 | 0.295 | 0.254 | 0.281 | 0.265 | 0.298 | 0.389 | 0.393 | 0.312 | 0.244 | 0.954 | 0.792 | 0.859 | 0.959 | 0.876 | 1 | 0.947 | 0.979 | 1.06 | 1.06 |
| NCI-H647 | 0.276 | 0.212 | 0.258 | 0.0983 | 0.282 | 0.165 | 0.154 | 0.153 | 0.105 | 0.892 | 1.02 | 0.798 | 1.09 | 1.05 | 0.874 | 0.819 | 1.04 | 0.934 | 0.871 |
| PC-3 [JPC-3] | 0.856 | 0.825 | 0.806 | 0.878 | 0.787 | 0.512 | 1.25 | 0.522 | 0.463 | 0.449 | – | 0.444 | 0.477 | 0.482 | 0.813 | – | 0.778 | 0.848 | 0.943 |
| SK-LU-1 | 0.328 | 0.35 | 0.304 | 0.327 | 0.312 | 0.521 | 0.455 | 0.334 | 0.276 | 0.893 | 0.82 | 0.879 | 0.807 | 0.859 | 1.31 | 0.955 | 1.32 | 0.883 | 1.18 |
| NCI-H1975 | 0.725 | 0.608 | 0.677 | – | 0.352 | 0.268 | 0.311 | 0.252 | 0.173 | 0.829 | 0.795 | 0.801 | 0.844 | 0.826 | 0.386 | 0.328 | 0.365 | 0.429 | 0.367 |
